Like-named read-outs stand apart in the source and are kept apart here. *1 amine or outer side, *2 acyl side, *3 side chain or, on linkers, in order; H or OH if unused. Where a SMILES comes first, the peptide text is derived from it. [ ]: non-standard residue; d: D form. The star is where a group is joined. X1 = CC[C@@]1(O)C(=O)OCc2c1cc1n(c2=O)Cc2c-1nc1cc(F)c(C)c3c1c2[C@H](N*)CC3; Hexanoyl(6-maleimido) = O=C1C=CC(=O)N1CCCCCC(=O)*; NHCH2OCH2CO = O=C(COCN[*:1])[*:2]
What was measured:
tissue proteinase B = tissue proteinase B (Homo sapiens, UniProt P07858); assay: In vitro enzyme digestion of linker-drug conjugates; format: biochemical; details: for speed of enzyme digestion (in words): pH 5.0 to 7.0
Experimental: The linker-drug conjugate (LE14 and GGFG-Dxd) was co-incubated with tissue proteinase B in three different pH (5.0, 6.0, 7.0) buffers. Samples were taken at different time points and entered into a high-performance liquid chromatography-mass spectrometry instrument. The external standard method (with DXD as the external standard) was used to determine the release percentage of the drug.

[1] = Coupling of linker-drug conjugates with other antibodies; format: physicochemical
SK-BR-3 cell line = assay: Killing activity of FDA026-LS13 before and after enzyme digestion; format: cell-based; details: 144 hours
Experimental: SK-BR-3 cell line was selected as the experimental cells. After the sample was incubated in tissue proteinase B system (100 mM sodium acetate-acetic acid buffer, 4 mM dithiothreitol, pH 5.0) at 37° C. for 4 hours, the obtained sample was diluted with culture medium to different concentrations. 8 concentrations (1.5 to 10-fold dilution) were set from 70 nM to 0.003 nM of SN-38 concentration. […] The IC50 value was calculated by reading the […] after chemical luminescent staining with CellTiter-Glo® Luminescent Cell Viability Assay.

SMILES	Percentage of drug release in the sample (tissue proteinase B; pH 5.0, 0 h)	Percentage of drug release in the sample (tissue proteinase B; pH 5.0, 1 h)	Percentage of drug release in the sample (tissue proteinase B; pH 5.0, 2 h)	Percentage of drug release in the sample (tissue proteinase B; pH 5.0, 3 h)	Percentage of drug release in the sample (tissue proteinase B; pH 5.0, 4 h)	Percentage of drug release in the sample (tissue proteinase B; pH 5.0, 5 h)	Percentage of drug release in the sample (tissue proteinase B; pH 5.0, 6 h)	speed of enzyme digestion (in words) (tissue proteinase B)	Percentage of drug release in the sample (tissue proteinase B; pH 6.0, 0 h)	Percentage of drug release in the sample (tissue proteinase B; pH 6.0, 1 h)	Percentage of drug release in the sample (tissue proteinase B; pH 6.0, 2 h)	Percentage of drug release in the sample (tissue proteinase B; pH 6.0, 3 h)	Percentage of drug release in the sample (tissue proteinase B; pH 6.0, 4 h)	Percentage of drug release in the sample (tissue proteinase B; pH 6.0, 5 h)	Percentage of drug release in the sample (tissue proteinase B; pH 6.0, 6 h)	Percentage of drug release in the sample (tissue proteinase B; pH 7.0, 0 h)	Percentage of drug release in the sample (tissue proteinase B; pH 7.0, 1 h)	Percentage of drug release in the sample (tissue proteinase B; pH 7.0, 2 h)	Percentage of drug release in the sample (tissue proteinase B; pH 7.0, 3 h)	Percentage of drug release in the sample (tissue proteinase B; pH 7.0, 4 h)	also measured
CC[C@@]1(O)C(=O)OCc2c1cc1n(c2=O)Cc2c-1nc1cc(F)c(C)c3c1c2[C@H](NC(=O)COCNC(=O)CNC(=O)[C@H](Cc1ccccc1)NC(=O)CNC(=O)CNC(=O)CCCCCN1C(=O)C=CC1=O)CC3 [GGFG-Dxd, reference compound] ({Hexanoyl(6-maleimido)}-GGFG[NHCH2OCH2CO]-X1)	21.62%	25%	25.85%	27.76%	29.72%	31.69%	34.17%	slow speed of enzyme digestion	23.58%	24.8%	27.02%	29.29%	31.37%	33.05%	35.95%	22.98%	26.53%	29.52%	31.95%	34.78%	Percentage of drug release in the sample (tissue proteinase B; pH 7.0, 5 h): 36.17%; Percentage of drug release in the sample (tissue proteinase B; pH 7.0, 6 h): 38.25%; aggregation ratio when coupled with other antibodies [1]: high aggregation ratio; precipitation when coupled with other antibodies [1]: produces precipitation
CCc1c2c(nc3ccc(O)cc13)-c1cc3c(c(=O)n1C2)COC(=O)[C@]3(O)CC [SN-38, 7-ethyl-10-hydroxycamptothecin]	–	–	–	–	–	–	–	–	–	–	–	–	–	–	–	–	–	–	–	–	IC50 (SK-BR-3 cell line; read-out: IC50 (based on SN-38 equivalent) Before Enzyme Digestion): 7.13 nM; IC50 (SK-BR-3 cell line; after tissue proteinase B system, pH 5.0, 37° C., 4 hours, read-out: IC50 (based on SN-38 equivalent) After Enzyme Digestion): 7.32 nM
CC[C@@]1(O)C(=O)OCc2c1cc1n(c2=O)Cc2c-1nc1cc(F)c(C)c3c1c2[C@@H](NC(=O)COCN(CCS(C)(=O)=O)C(=O)OCc1ccc(NC(=O)[C@H](C)NC(=O)[C@@H](NC(=O)CCCCCN2C(=O)C=CC2=O)C(C)C)cc1)CC3 [LE14]	15%	96.93%	98.35%	99.01%	99.21%	99.32%	97.39%	quickly enzymatically digested	14.28%	95.98%	96.8%	98.45%	98.81%	98.9%	99%	17.59%	98.05%	99.08%	99.33%	99.2%	Percentage of drug release in the sample (tissue proteinase B; pH 7.0, 5 h): 100%; Percentage of drug release in the sample (tissue proteinase B; pH 7.0, 6 h): 99.39%
